Assay results as given in US9364458B2, “Stabilized pharmaceutical dosage forms comprising atrasentan” (AbbVie Inc., priority 2013, dated 2016).
Structures can show the parent of a compound that is named as a salt. Each block holds one molecule with its values, some of them ahead of it.

Legend:
[1] = Dispersive surface energy by inverse gas chromatography; assay type: physicochemical
Experimental: Wet granulation blends prepared as described in Method 2 (atrasentan added dry to granulation bowl) and Method 3 (atrasentan added as HPMC suspension to granulation bowl) of Example 6 were analyzed prior to compression using inverse gas chromatography (“IGC”) to determine the surface energy of the blends. These measurements were compared to the measured values for pure atrasentan and pure HPMC.

[2] = Impurities / degradation products by HPLC in stability testing; assay type: physicochemical; conditions: mixtures with atrasentan and crospovidone, 80° C.
[3] = tested on: subjects with diabetic nephropathy; experiment: Phase IIb clinical trials of atrasentan; assay type: in vivo, human
From the text: The low dosing and the narrow therapeutic window for atrasentan have been confirmed through analysis of the data collected from recent Phase IIb clinical trials in subjects with diabetic nephropathy. These Phase IIb clinical trials evaluated the safety and efficacy of atrasentan to identify an appropriate balance between the systemic effects of atrasentan (which can lead to adverse side effects such as edema) and the efficacy effects of atrasentan. […] Reduction of residual albuminuria and the urinary-albumin-to-creatine ratio are surrogate endpoints generally associated with delaying the progression of end-stage renal disease and associated cardiovascular complications.

[4] = about 0.25 mg to about 1.25 mg daily
[5] = daily dose greater than about 1.25 mg

DISPERSIVE SURFACE ENERGY ([1]; Average): 50.9 mJ · m^−2 | DISPERSIVE SURFACE ENERGY ([1]; Run 1): 50.6 mJ · m^−2 | DISPERSIVE SURFACE ENERGY ([1]; Run 2): 51.4 mJ · m^−2
Compound: CCCCN(CCCC)C(=O)CN1C[C@H](c2ccc3c(c2)OCO3)[C@@H](C(=O)O)[C@@H]1c1ccc(OC)cc1 [Atrasentan Monohydrochloride]

Compound: Cl.N[C@@H](CS)C(=O)O.O [L-cysteine hydrochloride monohydrate]
stabilizing effect among the three anti-oxidants [2]: greatest stabilizing effect

Compound: CCCCN(CCCC)C(=O)CN1C[C@H](c2ccc3c(c2)OCO3)[C@@H](C(=O)O)[C@@H]1c1ccc(OC)cc1 [atrasentan, (2R,3R,4S)-4-(1,3-benzodioxol-5-yl)-1-[2-(dibutylamino)-2-oxoethyl]-2-(4-methoxyphenyl)pyrrolidine-3-carboxylic acid]
residual albuminuria [3, 4]: significantly reduce | urinary-albumin-to-creatine ratio [3, 4]: significantly reduce | adverse effects, particularly peripheral edema [3, 5]: increase in adverse effects | efficacy relative to the 1.25 mg daily dose [3, 5]: without any further improvement in efficacy | efficacy of daily dose ([3]; daily dose less than about 0.25 mg): sub-therapeutic
